Results from ChEMBL document CHEMBL1201862, “PubChem BioAssay data set” (2004).
Where “and” joins values, the source holds several entries; their conditions need not be identical. Equal values may be shown once.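 96-well plates; 48 h exposure; 5 concentrations. Endpoints by linear interpolation between flanking doses. Not reached: highest tested concentration assigned. Abbreviation: GI50, concentration required for 50% inhibition of growth.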 Calls of active or inactive are those of the source. Cut-off read from the data, not from the text of the source: active = GI50 up to about 1.1 µM and inactive = higher.

Legend:
Assay in all cases: NCI-60 cell line screen, 48 h
SK-MEL-2 = tested on: SK-MEL-2
NCI-H226 = tested on: NCI-H226
RXF 393 = tested on: RXF 393
SK-MEL-5 = tested on: SK-MEL-5
HCT-15 = tested on: HCT-15
LOX IMVI = tested on: LOX IMVI
SN12C = tested on: SN12C
NCI-H522 = tested on: NCI-H522
OVCAR-5 = tested on: OVCAR-5
COLO 205 = tested on: COLO 205
OVCAR-8 = tested on: OVCAR-8
786-0 = tested on: 786-0
HT-29 = tested on: HT-29
IGROV-1 = tested on: IGROV-1
A498 = tested on: A498
MDA-MB-231 = tested on: MDA-MB-231
MDA-MB-435 = tested on: MDA-MB-435
NCI/ADR-RES = tested on: NCI/ADR-RES
T47D = tested on: T47D

Compound: O=C(/C=C/c1ccccc1O)c1ccccc1Cl
- GI50 (SK-MEL-2): 61.5 µM (inactive)
- GI50 (NCI-H226): > 100 µM (inactive)
- GI50 (RXF 393): 43.1 µM (inactive)
- GI50 (SK-MEL-5): 42.3 µM (inactive)
- GI50 (HCT-15): 28.6 µM
- GI50 (LOX IMVI): 24.9 µM (inactive)
- GI50 (SN12C): 56.4 µM (inactive)
- GI50 (NCI-H522): 31.3 µM (inactive)
- GI50 (OVCAR-5): > 100 µM (inactive)
- GI50 (COLO 205): 33 µM (inactive)
- GI50 (OVCAR-8): 58.6 µM (inactive)
- GI50 (786-0): 92.5 µM (inactive)
- GI50 (HT-29): > 100 µM (inactive)
- GI50 (IGROV-1): 32.6 µM (inactive)
- GI50 (A498): 90.4 µM (inactive)

Compound: O=c1[nH]c2ccc(C(F)(F)F)cc2nc1C(F)(F)F
- GI50 (SK-MEL-2): 15 µM (inactive)
- GI50 (NCI-H226): 18.8 µM (inactive)
- GI50 (RXF 393): 5 µM (inactive)
- GI50 (MDA-MB-231): 28.3 µM (inactive)
- GI50 (SK-MEL-5): 17.2 µM (inactive)
- GI50 (HCT-15): 27.9 µM
- GI50 (LOX IMVI): 20.7 µM (inactive)
- GI50 (MDA-MB-435): 31.2 µM (inactive)
- GI50 (SN12C): 29.4 µM (inactive)
- GI50 (NCI/ADR-RES): 28.1 µM (inactive)
- GI50 (NCI-H522): 17.5 µM (inactive)
- GI50 (OVCAR-5): 35.6 µM (inactive)
- GI50 (COLO 205): 17.1 µM (inactive)
- GI50 (OVCAR-8): 25.3 µM (inactive)
- GI50 (786-0): 35.2 µM (inactive)
- GI50 (HT-29): 29.2 µM (inactive)
- GI50 (IGROV-1): 22.8 µM (inactive)
- GI50 (A498): 25.7 µM (inactive)
- GI50 (T47D): 13.2 µM (inactive)

Compound: O=C1CC[C@@]2(O)[C@H]3Cc4ccc(-c5ccccc5)c5c4[C@@]2(CCN3CC2CC2)[C@H]1O5
- GI50 (SK-MEL-2): 17.9 µM (inactive)
- GI50 (NCI-H226): 20.3 µM (inactive)
- GI50 (RXF 393): 9.66 µM (inactive)
- GI50 (MDA-MB-231): 15.2 µM (inactive)
- GI50 (SK-MEL-5): 14.2 µM (inactive)
- GI50 (HCT-15): 16.8 µM
- GI50 (LOX IMVI): 16 µM (inactive)
- GI50 (MDA-MB-435): 13.2 µM (inactive)
- GI50 (SN12C): 24.2 µM (inactive)
- GI50 (NCI/ADR-RES): 16.3 µM (inactive)
- GI50 (NCI-H522): 14.7 µM (inactive)
- GI50 (OVCAR-5): 17.2 µM (inactive)
- GI50 (COLO 205): 17.7 µM (inactive)
- GI50 (OVCAR-8): 16.1 µM (inactive)
- GI50 (786-0): 15.8 µM (inactive)
- GI50 (HT-29): 13.7 µM (inactive)
- GI50 (IGROV-1): 27.2 µM (inactive)
- GI50 (A498): 18.1 µM (inactive)
- GI50 (T47D): 17 µM (inactive)

Compound: O=C1/C(=C/c2cccc([N+](=O)[O-])c2)Sc2scc(-c3ccc([N+](=O)[O-])cc3)[n+]21
- GI50 (SK-MEL-2): 20.2 µM (inactive)
- GI50 (NCI-H226): 26.3 µM (inactive)
- GI50 (MDA-MB-231): 21.9 µM (inactive)
- GI50 (SK-MEL-5): 27.7 µM (inactive)
- GI50 (HCT-15): 14.5 µM
- GI50 (LOX IMVI): 18.5 µM (inactive)
- GI50 (MDA-MB-435): 16.9 µM (inactive)
- GI50 (SN12C): 18.3 µM (inactive)
- GI50 (NCI/ADR-RES): 19 µM (inactive)
- GI50 (OVCAR-5): 24.5 µM (inactive)
- GI50 (COLO 205): 36.7 µM (inactive)
- GI50 (OVCAR-8): 31.6 µM (inactive)
- GI50 (786-0): 16.4 µM (inactive)
- GI50 (HT-29): 17.4 µM (inactive)
- GI50 (IGROV-1): 18.6 µM (inactive)
- GI50 (T47D): 44.9 µM (inactive)

Compound: CCOc1ccccc1NC(=O)C(C#N)C1=C(Cl)C(=O)c2ccccc2C1=O (stereo unspecified)
- GI50 (SK-MEL-2): 1.55 µM (inactive)
- GI50 (NCI-H226): 2.13 µM (inactive)
- GI50 (RXF 393): 1.97 µM (inactive)
- GI50 (SK-MEL-5): 1.5 µM (inactive)
- GI50 (HCT-15): 1.47 µM
- GI50 (LOX IMVI): 0.74 µM (active)
- GI50 (SN12C): 1.79 µM (inactive)
- GI50 (NCI-H522): 2.09 µM (inactive)
- GI50 (OVCAR-5): 2.14 µM (inactive)
- GI50 (COLO 205): 1.98 µM (inactive)
- GI50 (OVCAR-8): 0.792 µM (active)
- GI50 (786-0): 1.79 µM (inactive)
- GI50 (HT-29): 2.29 µM (inactive)
- GI50 (IGROV-1): 2.13 µM (inactive)
- GI50 (A498): 19.8 µM (inactive)

Compound: COc1cccc2c1C(=O)c1c(O)c3c(c(O)c1C2=O)C[C@@](O)(C(=O)CO)C[C@@H]3OC1CC(N)C(O)C(C)O1 (stereo partly specified)
- GI50 (SK-MEL-2): 252 nM (active) and 203 nM (active)
- GI50 (NCI-H226): < 43.6 nM (active) and 58.1 nM (active)
- GI50 (SK-MEL-5): 114 nM (active) and 72.8 nM (active)
- GI50 (LOX IMVI): 52.1 nM (active) and 44.4 nM (active)
- GI50 (SN12C): 89.5 nM (active) and 170 nM (active)
- GI50 (OVCAR-5): 658 nM (active) and 733 nM (active)
- GI50 (OVCAR-8): 200 nM (active) and 136 nM (active)
- GI50 (786-0): 102 nM (active) and 57.5 nM (active)
- GI50 (HT-29): 312 nM (active) and 187 nM (active)
- GI50 (T47D): 94.2 nM (active) and 94 nM (active)

Compound: CCSc1nc(-c2cccs2)nc2ccc(I)cc12
- GI50 (SK-MEL-2): > 100 µM (inactive)
- GI50 (NCI-H226): > 100 µM (inactive)
- GI50 (RXF 393): > 100 µM (inactive)
- GI50 (SK-MEL-5): > 100 µM (inactive)
- GI50 (HCT-15): 89.9 µM
- GI50 (LOX IMVI): > 100 µM (inactive)
- GI50 (MDA-MB-435): > 100 µM (inactive)
- GI50 (SN12C): > 100 µM (inactive)
- GI50 (NCI/ADR-RES): > 100 µM (inactive)
- GI50 (NCI-H522): > 100 µM (inactive)
- GI50 (OVCAR-5): > 100 µM (inactive)
- GI50 (COLO 205): > 100 µM (inactive)
- GI50 (OVCAR-8): > 100 µM (inactive)
- GI50 (786-0): > 100 µM (inactive)
- GI50 (HT-29): > 100 µM (inactive)
- GI50 (IGROV-1): > 100 µM (inactive)
- GI50 (T47D): 1.5 µM (inactive)
